The source made the active and inactive calls.
Tests used:
[1] = target: T1, Short transient receptor potential channel 4 (Mus musculus, UniProt Q9QUQ5); assay: calcium entry via TRPC4 opening agents – cell-based, HEK293 TRPC4/mu-opioid, Fluo-4 calcium, dose response (AID 434937); type: functional
T1 sequence (Q9QUQ5 whole entry): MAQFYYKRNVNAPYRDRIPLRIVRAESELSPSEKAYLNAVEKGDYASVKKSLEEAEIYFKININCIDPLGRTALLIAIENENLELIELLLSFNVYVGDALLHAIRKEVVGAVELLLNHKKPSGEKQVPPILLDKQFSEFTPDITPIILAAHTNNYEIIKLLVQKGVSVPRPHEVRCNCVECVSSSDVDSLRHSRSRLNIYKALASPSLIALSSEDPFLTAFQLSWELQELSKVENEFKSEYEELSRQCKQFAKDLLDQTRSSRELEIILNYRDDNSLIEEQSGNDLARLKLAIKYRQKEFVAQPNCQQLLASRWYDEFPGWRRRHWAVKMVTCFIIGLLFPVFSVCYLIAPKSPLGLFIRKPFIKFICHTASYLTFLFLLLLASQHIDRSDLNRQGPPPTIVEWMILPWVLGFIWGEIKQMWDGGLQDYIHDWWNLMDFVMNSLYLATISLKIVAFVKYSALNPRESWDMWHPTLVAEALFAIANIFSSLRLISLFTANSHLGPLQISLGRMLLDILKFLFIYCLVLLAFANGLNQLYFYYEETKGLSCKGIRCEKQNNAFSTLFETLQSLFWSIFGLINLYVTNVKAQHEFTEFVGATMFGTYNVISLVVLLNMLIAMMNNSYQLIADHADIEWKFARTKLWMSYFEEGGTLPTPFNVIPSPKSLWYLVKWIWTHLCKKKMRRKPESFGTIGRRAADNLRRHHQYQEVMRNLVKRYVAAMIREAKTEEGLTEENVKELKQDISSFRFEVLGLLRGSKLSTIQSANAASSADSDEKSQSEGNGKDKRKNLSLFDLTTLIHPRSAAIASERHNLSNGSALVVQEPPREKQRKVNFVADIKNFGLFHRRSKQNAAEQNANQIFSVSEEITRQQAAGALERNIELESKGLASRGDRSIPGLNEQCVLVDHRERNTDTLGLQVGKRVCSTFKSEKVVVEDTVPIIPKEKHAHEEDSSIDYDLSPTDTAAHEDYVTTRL

[2] = target: T2, Delta-type opioid receptor (Homo sapiens, UniProt P41143); assay: Counterscreen for agonists of heterodimerization of the mu 1 (OPRM1) and delta 1 (OPRD1) opioid receptors: Luminescence-based cell-based high throughput dose response assay to identify agonists of OPRD1 homodimerization. [Related pubchem assays (depositor defined):AID504326, AID504355, AID504692, AID504904, AID504905]; type: functional
T2 sequence (P41143 whole entry): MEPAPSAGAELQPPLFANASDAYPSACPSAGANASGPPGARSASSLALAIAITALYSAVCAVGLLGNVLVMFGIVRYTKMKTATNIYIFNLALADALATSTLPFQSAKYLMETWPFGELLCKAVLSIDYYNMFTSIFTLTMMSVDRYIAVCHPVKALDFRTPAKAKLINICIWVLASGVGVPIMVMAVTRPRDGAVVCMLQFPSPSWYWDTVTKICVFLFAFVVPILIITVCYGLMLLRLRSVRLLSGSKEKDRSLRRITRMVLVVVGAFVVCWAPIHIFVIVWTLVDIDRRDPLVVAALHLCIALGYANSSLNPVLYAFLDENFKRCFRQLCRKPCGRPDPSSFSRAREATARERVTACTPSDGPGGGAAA

Mu-type opioid receptor [3] = target: T3, Mu-type opioid receptor (Homo sapiens, UniProt P35372); assay: Counterscreen for agonists of heterodimerization of the mu 1 (OPRM1) and delta 1 (OPRD1) opioid receptors: Luminescence-based cell-based high throughput dose response assay to identify agonists of OPRM1 homodimerization.; type: functional
T3 sequence (P35372 whole entry): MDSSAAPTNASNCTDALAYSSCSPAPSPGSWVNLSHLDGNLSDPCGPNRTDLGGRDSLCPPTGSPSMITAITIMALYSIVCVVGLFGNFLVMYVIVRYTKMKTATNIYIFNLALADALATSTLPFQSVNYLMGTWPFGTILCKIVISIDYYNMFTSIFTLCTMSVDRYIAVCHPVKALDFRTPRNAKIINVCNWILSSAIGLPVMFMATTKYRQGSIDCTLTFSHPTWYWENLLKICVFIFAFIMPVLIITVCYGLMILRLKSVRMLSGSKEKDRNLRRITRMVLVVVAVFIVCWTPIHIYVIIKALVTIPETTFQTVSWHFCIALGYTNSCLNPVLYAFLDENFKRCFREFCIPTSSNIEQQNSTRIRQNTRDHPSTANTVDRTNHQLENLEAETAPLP

[4] = target: 5-hydroxytryptamine receptor 5A (Homo sapiens, UniProt P47898); assay: Counterscreen for agonists of OPRM1-OPRD1 heterodimerization: luminescence-based cell-based high throughput dose response assay to identify agonists of 5-hydroxytryptamine (serotonin) 5A receptor (HTR5A). [Related pubchem assays (depositor defined):AID504326, AID504355, AID504692, AID504904, AID504905]; type: functional
5-hydroxytryptamine receptor 5A, sequence (P47898 whole entry, the tested form may be a part): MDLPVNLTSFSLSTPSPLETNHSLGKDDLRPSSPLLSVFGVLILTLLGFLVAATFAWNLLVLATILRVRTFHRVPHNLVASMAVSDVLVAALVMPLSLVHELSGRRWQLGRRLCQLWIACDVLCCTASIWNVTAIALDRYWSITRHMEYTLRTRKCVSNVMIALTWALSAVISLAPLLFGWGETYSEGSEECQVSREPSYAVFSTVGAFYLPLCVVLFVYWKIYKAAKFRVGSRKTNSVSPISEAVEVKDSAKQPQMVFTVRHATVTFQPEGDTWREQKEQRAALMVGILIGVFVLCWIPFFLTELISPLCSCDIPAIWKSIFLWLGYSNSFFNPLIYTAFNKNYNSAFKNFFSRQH

[5] = blockers of HIV-1 envelope-mediated cell-cell fusion – cherry-pick, dose response (AID 652057); type: functional, cell-based
[6] = viability loss in CEM21 cells – cell-based, CellTiter-Glo luminescence, cherry-picked, cytotoxicity control for viral fusion inhibitor project, dose response (AID 652042); type: functional;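 note: potency for signal decrease meaning cytotoxicity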
[7] = blockers of HIV-1 ZM109 envelope-driven cell-cell fusion – HeLa effector, CEM target cells, luciferase, cherry-pick, dose response (AID 652058); type: functional, cell-based;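 note: luciferase signal from HIV-1 Env mediated cell-cell fusion of effector and target cells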
[8] = off-target signal loss in HeLa-CEM21 co-culture – HeLa F-luc CTL cells, cherry-picked, counter-screen for HIV-1 Env fusion inhibitor project, dose response (AID 652040); type: functional, cell-based;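 note: potency for signal decrease marking cytotoxic or nonspecific inhibition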
[9] = HIV-1 AD8 envelope cell-cell fusion blockers – cherry-pick, dose response (AID 652062); type: functional, cell-based;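 note: luciferase signal from cell-cell fusion driven by HIV-1 clade B AD8 Env; potency is for inhibitors of fusion seen as a drop in luminescence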
[10] = target: T4, Voltage-gated N-type calcium channel alpha-1B subunit/Amyloid beta A4 precursor protein-binding family A member 1 (Homo sapiens, UniProt Q00975+Q02410); type: protein assay
T4 sequence (Q00975 whole entry): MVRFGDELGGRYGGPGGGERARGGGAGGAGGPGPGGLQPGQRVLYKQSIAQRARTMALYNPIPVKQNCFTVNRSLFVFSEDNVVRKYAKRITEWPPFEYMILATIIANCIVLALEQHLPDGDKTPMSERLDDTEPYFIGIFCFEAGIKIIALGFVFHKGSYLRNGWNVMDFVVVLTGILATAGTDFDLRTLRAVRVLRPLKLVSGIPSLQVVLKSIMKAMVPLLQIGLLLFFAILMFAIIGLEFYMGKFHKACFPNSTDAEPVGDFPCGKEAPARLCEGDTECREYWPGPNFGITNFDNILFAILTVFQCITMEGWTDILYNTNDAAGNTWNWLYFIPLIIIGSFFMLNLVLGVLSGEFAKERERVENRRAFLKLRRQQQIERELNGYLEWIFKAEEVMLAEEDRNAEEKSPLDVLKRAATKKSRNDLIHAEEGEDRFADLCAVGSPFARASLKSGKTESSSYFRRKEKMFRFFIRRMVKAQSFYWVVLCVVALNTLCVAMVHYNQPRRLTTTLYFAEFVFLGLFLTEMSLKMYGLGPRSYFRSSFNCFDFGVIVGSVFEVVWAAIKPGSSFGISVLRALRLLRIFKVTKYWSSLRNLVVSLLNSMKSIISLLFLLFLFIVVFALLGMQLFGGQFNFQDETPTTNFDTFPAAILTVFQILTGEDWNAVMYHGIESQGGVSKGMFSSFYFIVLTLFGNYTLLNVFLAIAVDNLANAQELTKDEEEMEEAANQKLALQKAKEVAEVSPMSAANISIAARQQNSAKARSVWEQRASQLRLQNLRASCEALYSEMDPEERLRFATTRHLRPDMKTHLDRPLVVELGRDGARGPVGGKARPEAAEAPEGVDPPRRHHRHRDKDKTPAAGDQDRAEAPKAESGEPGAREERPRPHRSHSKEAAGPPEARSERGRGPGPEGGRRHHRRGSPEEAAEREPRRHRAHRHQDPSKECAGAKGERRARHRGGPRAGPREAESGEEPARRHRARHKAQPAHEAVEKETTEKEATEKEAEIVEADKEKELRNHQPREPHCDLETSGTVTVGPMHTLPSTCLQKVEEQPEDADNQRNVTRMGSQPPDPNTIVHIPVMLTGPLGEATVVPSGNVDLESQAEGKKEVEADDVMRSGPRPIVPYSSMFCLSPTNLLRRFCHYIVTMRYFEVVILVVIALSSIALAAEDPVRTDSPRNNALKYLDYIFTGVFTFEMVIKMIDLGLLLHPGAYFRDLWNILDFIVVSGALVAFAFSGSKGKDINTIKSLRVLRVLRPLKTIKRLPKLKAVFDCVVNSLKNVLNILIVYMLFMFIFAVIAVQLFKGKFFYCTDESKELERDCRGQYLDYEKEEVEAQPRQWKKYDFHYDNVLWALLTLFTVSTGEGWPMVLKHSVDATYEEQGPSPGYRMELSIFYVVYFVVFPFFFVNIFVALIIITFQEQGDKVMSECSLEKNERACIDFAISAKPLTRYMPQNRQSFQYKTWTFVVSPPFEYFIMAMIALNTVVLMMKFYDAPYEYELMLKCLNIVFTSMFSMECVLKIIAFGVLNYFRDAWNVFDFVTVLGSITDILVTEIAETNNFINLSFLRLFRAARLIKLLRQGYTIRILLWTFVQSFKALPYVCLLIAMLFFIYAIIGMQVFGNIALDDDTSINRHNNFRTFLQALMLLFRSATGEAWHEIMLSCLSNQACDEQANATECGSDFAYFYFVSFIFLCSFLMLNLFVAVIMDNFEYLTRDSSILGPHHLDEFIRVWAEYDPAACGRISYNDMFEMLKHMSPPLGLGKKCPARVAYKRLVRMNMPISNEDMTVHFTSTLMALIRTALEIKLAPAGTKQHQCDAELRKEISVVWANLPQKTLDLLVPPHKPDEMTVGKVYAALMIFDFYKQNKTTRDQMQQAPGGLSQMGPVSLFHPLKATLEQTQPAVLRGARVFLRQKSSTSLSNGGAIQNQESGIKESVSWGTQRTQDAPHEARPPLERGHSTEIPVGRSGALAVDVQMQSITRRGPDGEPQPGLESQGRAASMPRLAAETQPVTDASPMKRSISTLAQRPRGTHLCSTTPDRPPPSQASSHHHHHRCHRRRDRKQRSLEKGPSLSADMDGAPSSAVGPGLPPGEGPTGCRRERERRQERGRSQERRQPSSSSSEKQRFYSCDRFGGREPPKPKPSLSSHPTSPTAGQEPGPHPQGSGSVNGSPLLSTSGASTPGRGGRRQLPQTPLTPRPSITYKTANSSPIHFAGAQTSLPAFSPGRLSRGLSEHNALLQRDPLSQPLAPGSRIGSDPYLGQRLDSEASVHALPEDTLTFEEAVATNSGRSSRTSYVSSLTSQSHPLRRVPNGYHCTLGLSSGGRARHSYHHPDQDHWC
T4 sequence (Q02410 whole entry): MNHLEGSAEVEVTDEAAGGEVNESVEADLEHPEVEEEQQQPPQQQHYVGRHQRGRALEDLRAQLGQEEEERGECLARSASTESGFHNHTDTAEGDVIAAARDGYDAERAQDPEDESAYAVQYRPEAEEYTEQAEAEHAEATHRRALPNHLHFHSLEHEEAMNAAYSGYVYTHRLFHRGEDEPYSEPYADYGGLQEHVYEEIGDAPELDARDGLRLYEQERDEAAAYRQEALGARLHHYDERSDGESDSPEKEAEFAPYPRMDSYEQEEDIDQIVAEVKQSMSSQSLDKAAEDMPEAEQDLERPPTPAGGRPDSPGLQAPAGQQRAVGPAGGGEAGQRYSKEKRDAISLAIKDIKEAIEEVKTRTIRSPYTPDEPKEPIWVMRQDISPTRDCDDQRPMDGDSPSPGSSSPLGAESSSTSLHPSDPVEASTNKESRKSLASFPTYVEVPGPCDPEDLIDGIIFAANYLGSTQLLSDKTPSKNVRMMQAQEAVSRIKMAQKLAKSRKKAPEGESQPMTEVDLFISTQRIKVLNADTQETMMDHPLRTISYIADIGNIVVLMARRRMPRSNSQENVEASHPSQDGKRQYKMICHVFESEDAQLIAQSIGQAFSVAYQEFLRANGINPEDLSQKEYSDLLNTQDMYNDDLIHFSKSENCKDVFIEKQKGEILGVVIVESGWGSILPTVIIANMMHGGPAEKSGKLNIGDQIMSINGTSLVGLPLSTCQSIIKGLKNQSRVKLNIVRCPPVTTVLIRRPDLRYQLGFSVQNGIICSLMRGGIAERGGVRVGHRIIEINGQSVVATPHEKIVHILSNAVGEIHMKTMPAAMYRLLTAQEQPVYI

[11] = target: T5, Mannose-6-phosphate isomerase (Homo sapiens, UniProt P34949); assay: MPI enzyme activity inhibition – biochemical, fluorescence intensity, coupled assay, primary screen (AID 1209)
T5 sequence (P34949 whole entry): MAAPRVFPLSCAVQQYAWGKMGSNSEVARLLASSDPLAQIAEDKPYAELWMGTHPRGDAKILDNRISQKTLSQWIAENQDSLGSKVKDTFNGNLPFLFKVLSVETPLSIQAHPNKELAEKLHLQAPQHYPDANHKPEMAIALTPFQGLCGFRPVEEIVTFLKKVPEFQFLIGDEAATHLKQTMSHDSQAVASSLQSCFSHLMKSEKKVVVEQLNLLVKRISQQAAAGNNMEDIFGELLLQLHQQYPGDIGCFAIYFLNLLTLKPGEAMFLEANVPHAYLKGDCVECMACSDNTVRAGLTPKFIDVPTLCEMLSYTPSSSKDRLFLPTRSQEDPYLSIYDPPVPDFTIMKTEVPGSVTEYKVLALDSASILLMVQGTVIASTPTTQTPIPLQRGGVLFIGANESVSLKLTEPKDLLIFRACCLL

[12] = target: T4, Voltage-gated N-type calcium channel alpha-1B subunit/Amyloid beta A4 precursor protein-binding family A member 1; type: protein assay; remark: listed apart in the source
[13] = target: DNA dC->dU-editing enzyme APOBEC-3A (Homo sapiens, UniProt P31941); assay: A3A deaminase inhibition for selectivity – biochemical, dose response (AID 504722); type: functional
[14] = target: Eukaryotic translation initiation factor 4E (Mus musculus, UniProt P63073); assay: blockers of eIF4G binding by eIF4E – biochemical, TR-FRET, dose response (AID 855); type: functional;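 note: potency for disrupting eIF4E binding to eIF4GI seen as loss of FRET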
Eukaryotic translation initiation factor 4E, sequence (P63073 whole entry): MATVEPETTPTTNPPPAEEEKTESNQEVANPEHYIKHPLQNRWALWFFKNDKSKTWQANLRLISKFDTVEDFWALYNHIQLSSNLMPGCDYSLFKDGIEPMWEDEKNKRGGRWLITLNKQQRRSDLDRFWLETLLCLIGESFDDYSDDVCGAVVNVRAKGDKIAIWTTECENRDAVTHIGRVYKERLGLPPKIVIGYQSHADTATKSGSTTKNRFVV

[15] = target: DNA dC->dU-editing enzyme APOBEC-3G (Homo sapiens, UniProt Q9HC16); assay: Dose Response confirmation of small molecule APOBEC3G DNA Deaminase Inhibitors via a fluorescence-based single-stranded DNA deaminase assay. [Related pubchem assays (depositor defined):AID493012, AID493028]; type: functional
Exodeoxyribonuclease V = Exodeoxyribonuclease V (Escherichia coli (strain K12), UniProt P04993+P07648+P08394); assay: RecBCD inhibition via phage-restricted bacterial growth – absorbance, V66 E. coli, mutant T4 phage, counter-screen for AddAB inhibitor project, dose response (AID 492957); type: functional, cell-based, Escherichia coli str. K-12 substr. MG1655
[16] = Counterscreen for AddAB inhibitors: absorbance-based bacterial cell-based high throughput dose response assay for inhibitors of bacterial viability. [Related pubchem assays (depositor defined):AID435030, AID449728, AID449731, AID488942, AID488955, AID488956]; type: functional
cells [17] = type: functional, cell-based
cells [18] = type: functional, cell-based; remark: listed apart in the source
Escherichia coli [19] = assay: microbe, parasite or virus in culture
Troponin, cardiac muscle = Troponin, cardiac muscle (Homo sapiens, UniProt P19429+P45379+P63316); assay: Fluorescence-based biochemical high throughput dose response assay for activators of the calcium sensitivity of cardiac Regulated Thin Filaments (RTF). [Related pubchem assays (depositor defined):AID493008, AID493018, AID504382, AID504383]; type: protein-complex assay
[20] = decrease of insulin promoter-GFP reporter – imaging, high-content screening, mouse beta cells (AID 1628); type: functional; details: MIN6
BJ [21] = assay: BJ-TERT fibroblast viability loss – cell-based, RAS-independent, luminescence, dose response (AID 1933); type: functional; details: Homo sapiens
[22] = MIN6 cell viability loss – mouse insulinoma, cytotoxicity control, dose response (AID 2122); type: functional;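 note: confirmatory high-throughput counterscreen run to flag cytotoxic compounds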
BJ [23] = assay: cells; type: functional, cell-based; details: Homo sapiens
BJ [24] = assay: BJ-TERT-LT-ST fibroblast viability loss – cell-based, RAS-independent, luminescence, dose response (AID 1935); type: functional; details: Homo sapiens;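 note: BJ fibroblasts immortalized with TERT plus LT and ST oncogenes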
[25] = DRD fibroblast viability loss – cell-based, non-viral oncogenic, luminescence, dose response (AID 1934); type: functional; details: Homo sapiens
BJ [26] = assay: growth inhibition of engineered Ras-driven BJ cells – cell-based, alamar blue fluorescence, cherrypicked samples, dose response (AID 2631); type: functional; details: Homo sapiens;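 note: confirmatory dose-response assay in RAS-dependent BJ fibroblasts engineered with TERT, LT and ST, with cytotoxicity read by fluorescence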
Cytochrome P450 2D6 [27] = target: T6, Cytochrome P450 2D6 (Homo sapiens, UniProt P10635);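 note: CYP2D6 member of a cytochrome P450 panel assay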
T6 sequence (P10635 whole entry): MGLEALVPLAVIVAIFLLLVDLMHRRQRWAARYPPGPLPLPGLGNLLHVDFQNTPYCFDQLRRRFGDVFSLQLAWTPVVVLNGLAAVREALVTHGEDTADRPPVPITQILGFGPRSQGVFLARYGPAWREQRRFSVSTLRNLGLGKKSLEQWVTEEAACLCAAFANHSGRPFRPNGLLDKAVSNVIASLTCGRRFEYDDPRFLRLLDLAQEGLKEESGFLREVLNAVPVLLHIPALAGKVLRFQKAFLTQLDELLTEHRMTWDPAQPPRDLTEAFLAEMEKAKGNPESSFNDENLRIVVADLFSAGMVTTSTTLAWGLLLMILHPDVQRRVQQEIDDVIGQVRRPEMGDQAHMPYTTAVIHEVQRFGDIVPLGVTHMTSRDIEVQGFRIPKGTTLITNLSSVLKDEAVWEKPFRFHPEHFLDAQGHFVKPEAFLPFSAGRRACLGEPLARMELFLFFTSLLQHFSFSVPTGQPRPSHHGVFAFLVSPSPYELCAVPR

Cytochrome P450 2D6 [28] = target: T6, Cytochrome P450 2D6; remark: listed apart in the source
[29] = test system: Streptococcus sp. 'group A'; assay: Streptococcus pyogenes SK(-)GAS viability under kanamycin – luminescence, BacTiterGlo, confirmation, counter-screen for streptokinase expression inhibitor project, dose response (AID 1900); type: functional, organism-based
[30] = microbe, parasite or virus in culture; type: functional; details: Mycobacterium tuberculosis
Streptococcus = assay: GAS UMAA2166 growth inhibition – luminescence, BacTiterGlo, counter-screen for streptokinase expression inhibitor project, dose response (AID 1915); type: functional, organism-based;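 note: potency for reduction of bacterial viability or growth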
Escherichia coli [31] = assay: microbe, parasite or virus in culture; remark: listed apart in the source
[32] = target: T2, Delta-type opioid receptor; assay: HTS Image-Based Screen for Antagonists of the DOR Receptor. [Related pubchem assays (depositor defined):AID1777, AID1785, AID1786, AID2133]; type: functional
Mu-type opioid receptor [33] = target: T3, Mu-type opioid receptor; assay: HTS Image-Based Screen for Agonists of the MOR Receptor. [Related pubchem assays (depositor defined):AID1777, AID1785, AID1786, AID2133]; type: functional
[34] = target: T2, Delta-type opioid receptor; assay: HTS Image-Based Screen for Agonists of the DOR Receptor. [Related pubchem assays (depositor defined):AID1777, AID1786, AID2133]; type: functional
[35] = target: T7, Kappa-type opioid receptor (Homo sapiens, UniProt P41145); type: functional
Beta-galactosidase = Beta-galactosidase (Escherichia coli, UniProt Q8VNN2); type: functional
[36] = target: T7, Kappa-type opioid receptor; type: functional; remark: listed apart in the source

SMILES: COc1ccc(CNCCc2c[nH]c3ccccc23)c(OC)c1C
- EC50 [1]: 0.841 µM (active)
- EC50 [2]: > 92.5 µM (inactive)
- EC50 (Mu-type opioid receptor [3]): 59.5 µM (inactive)
- EC50 [4]: 78.4 µM (inactive)
- AC50 [5]: 2.44 µM (active)
- AC50 [6]: 24.9 µM (active)
- AC50 [7]: 7.75 µM (active)
- AC50 [8]: 5.48 µM (active)
- AC50 [9]: 14.3 µM (active)

SMILES: N#Cc1cccc(/N=c2\ssnc2Cl)c1
- IC50 [10]: 11.3 µM (active)
- IC50 [11]: 26.7 µM (active)
- IC50 [12]: 10.9 µM (active)
- IC50 [13]: > 100 µM (inactive)
- IC50 [14]: 50 µM (inactive)
- IC50 [15]: 7.4 µM (active)

SMILES: CCn1cc(C(=O)NCCc2ccccc2)c(=O)c2cc(F)c(N3CCN(C)CC3)cc21
- IC50 (Exodeoxyribonuclease V): > 118 µM (inactive)
- IC50 [16]: 27.1 µM (inactive)

SMILES: Cc1ccc(C2(O)C[N+](c3ccccc3C)=C3SCCN32)cc1 (stereo unspecified)
- EC50 (cells [17]): > 350 µM (not active)
- EC50 (cells [18]): > 350 µM (not active)
- EC50 [1]: 0.376 µM (active)
- EC50 [2]: > 92.5 µM (inactive)
- EC50 (Mu-type opioid receptor [3]): 2.83 µM (active)
- EC50 [4]: > 92.5 µM (inactive)

SMILES: CC(=O)Oc1ccc2c(c1)OC(c1ccccc1)CC21CC(C)(C)N=C(S)N1 (stereo unspecified)
- AC50 (Escherichia coli [19]): 31.7 µM (active)

SMILES: CCOC(=O)c1cc2n(c1N)-c1ccccc1C2=O
- EC50 (Troponin, cardiac muscle): 24.4 µM (inactive)

SMILES: O=C(NCc1cccnc1)c1ccc(NC(=O)c2cccc([N+](=O)[O-])c2)cc1
- IC50 [20]: 0.576 µM (active)
- EC50 (BJ [21]): 27.4 µM (active)
- IC50 [22]: > 16 µM (inactive)
- EC50 (BJ [23]): 2.19 µM (inconclusive)
- EC50 (BJ [24]): 19.3 µM (active)
- EC50 [25]: > 150 µM (not active)
- EC50 (BJ [26]): 36 µM (active)

SMILES: CC(=O)Oc1cc(C(C)C)c(OCCN(C)C)cc1C [MOXISYLYTE]
- AC50 (Cytochrome P450 2D6 [27]): 10 µM (inconclusive)
- AC50 (Cytochrome P450 2D6 [28]): 10 µM (inconclusive)

SMILES: CC(=O)N1c2ccc(S(=O)(=O)CCC(=O)O)cc2CC1C (stereo unspecified)
- AC50 (Cytochrome P450 2D6 [28]): inconclusive

SMILES: CN(C)[C@@H]1C(=O)C(C(N)=O)=C(O)[C@@]2(O)C(O)=C3C(=O)c4c(O)cccc4[C@@](C)(O)C3C[C@@H]12 (stereo partly specified)
- EC50 [29]: 0.099 µM (active)
- CC50 [30]: > 40 µM (active)
- EC50 (Streptococcus): 0.098 µM (active)
- AC50 (Escherichia coli [19]): 19.9 µM (active)
- AC50 (Escherichia coli [31]): 1.17 µM (active)

SMILES: COc1ccc(Nc2nnc(SCc3cn4c(C)cccc4n3)s2)cc1
- IC50 (Exodeoxyribonuclease V): > 119 µM (inactive)
- IC50 [16]: > 119 µM (inactive)

SMILES: CCn1nc(C)c(CN2CCc3c([nH]c4ccccc34)C2c2ccc(F)c(OC)c2)c1C (stereo unspecified)
- IC50 [20]: 2.29 µM (active)
- IC50 [22]: 13.6 µM (inactive)

SMILES: COc1ccc(C)cc1S(=O)(=O)N(CC(=O)NC1CCCC1)c1ccc(F)cc1
- AC50 (Escherichia coli [31]): 37.2 µM (active)

SMILES: COc1ccccc1/N=c1\scc(-c2ccc3c(c2)NC(=O)CO3)n1CC1CCCO1 (stereo unspecified)
- IC50 [32]: > 32 µM (inactive)
- EC50 (Mu-type opioid receptor [33]): > 32 µM (inactive)
- EC50 [34]: > 32 µM (inactive)
- IC50 [35]: 5.52 µM (active)
- EC50 (Beta-galactosidase): > 31.5 µM (inactive)
- IC50 [36]: > 32 µM

Source: ChEMBL document CHEMBL1201862, “PubChem BioAssay data set” (2004)
